From US11891601B2, “Method to enhance the transcription regulation of SUPT4H on genes containing repetitive nucleotide sequences” (National Yang-Ming University, priority 2018, dated 2024)

System: HD-Drosophila expressing mutant HTT97Q
Test: Rough eye phenotype in HD-Drosophila (Gmr-HTT97Q)
Assay type: in vivo, Drosophila melanogaster
Conditions: 10 μM 6CR plus 100 μM Tropolone in media
Procedure: The Gmr-ga14-UAS-HTT97Q/cyo line expressing HTT97Q under the control of Gmr-gal4 in compound eyes was provided by MT SU (National Taiwan Normal University, Taipei, Taiwan). Fly stock was maintained and crossed at 25° C. on a standard cornmeal yeast agar medium.
In each compound treatment experiment, 15 Gmr-ga14-UAS-HTT97Q/cyo male flies were crossed with 15 Gmr-ga14-UAS-HTT-97Q/cyo females in a vial containing 10 mL of media supplemented with the testing compound at a final concentration of 10 μM 6CR (Sigma) or/and 100 μM Tropolone (Sigma). 6-chloropurine riboside (6CR) is a chemical reagent that inhibits the activity of SUPT4H by preventing the complex formation of SUPT4H/SUPT5H (Patent No.: US2018/0064744A1). Parent flies were removed after 7 days, and 4-day-old progenies carrying one Gmr-ga14-UAS-HTT97Q allele were collected for eye morphology examination. […] In each treatment group, flies were analyzed and normalized with control flies. […]
Please refer to FIG. 8. […] After parent fly removal, the 4-day-old progenies carrying one Gmr-ga14-UAS-HTT97Q allele were collected and analyzed for eye morphology. […] 4-day-old progenies as described above were collected and analyzed the levels of mutant HTT by Western blotting. α-tubulin was included and served as a loading control. […]

O=c1cccccc1O [Tropolone]
rescue effect of rough eye phenotype by 6CR with co-treatment of Tropolone: greatly improved
